In US11369644B2, “Microbial consortia” (priority 2018, dated 2022):
Values joined by “and” are separate entries in the source; they are usually repeats but may differ in a detail not shown here. Equal entries are not always repeated. Positions of bridges follow the written chain, without caps; N, C: chain ends. Non-standard residues stand in square brackets, D forms with d. Residues, ends and D or L forms follow the SMILES beside them. *: point of attachment. Ileψ(thiazoline)Cys = CC[C@H](C)[C@H](N)C1=N[C@H](C(=O)*)CS1; dOrn = NCCC[C@@H](N)C(=O)O

Experiments:
Ca. glabrata DSM 11226 = assay: Disk diffusion test for antimicrobial activity (DIN 58940-3) against Ca. glabrata; format: cell-based; conditions: test strain 2 (Ca. glabrata DSM 11226); positive control 2 μg Cycloheximide/disc; 24 h at 25° C.; disk diameter = 6 mm
Experimental: (§1) Generally, all samples were provided in lyophilized from. Subsets of each sample were suspended in solvent for analysis by LC/MS and GC/MS. Following these analyses, further subsets of each sample were extracted and fractionated (to enrich the medium polar range). Fractions were analyzed by LC/MS. Cell extracts were analyzed in a bioassay against Candida sp. and Rhodotorula sp. in a disk diffusion assay at 3 concentrations.
(§2) Preparative Cell Extraction. Lyophilized cells were extracted prior to fractionation/bio assay to remove cell wall debris. The cells were adjusted to a final concentration of 50 mg/mL (Table 9) and sonicated for 15 min followed by vortexing for 2 min and a second sonication step of 15 min. Afterwards, 10 mL of the suspension were transferred to another vial an centrifuged at 10,000 RCF for 5 min. The supernatant was transferred to a new vial.
(§3) Disk diffusion test. Disk diffusion tests for antimicrobial activity were prepared according to DIN 58940-3 (DIN-Taschenbuch 222, 5. Edition) using the strains 00549fBCD000864 (Rho. glutinis, test strain #1) DSM 70821 and 00539fDSM011226 (Ca. glabrata, test strain #2) DSM 11226. […]
(§4) The test strains were diluted to 1.000.000 cfu/mL using saline solution. […] After 24 h the zone of inhibition was measured and recorded in Table 10 below.

Rho. glutinis DSM 70821 = assay: Disk diffusion test for antimicrobial activity (DIN 58940-3) against Rho. glutinis; format: cell-based; conditions: test strain 1 (Rho. glutinis DSM 70821); positive control 2 μg Cycloheximide/disc; 24 h at 25° C.; disk diameter = 6 mm
Experimental: as §1, §2, §3, §4

F. prausnitzii ST38 = assay: Antibiotic resistance by broth solution method (MIC), F. prausnitzii ST38; format: cell-based, Faecalibacterium prausnitzii
Experimental: (§5) Antibiotic resistance in this example was determined using the broth solution method.
(§6) Antibiotic resistance in this example was determined using the broth solution method. This procedure involved preparing two-fold dilutions of antibiotics (e.g., 1, 2, 4, 8, and 16 μg/mL) in a liquid growth medium dispensed in test tubes. The antibiotic-containing tubes were inoculated with a standardized bacterial suspension of about 1-5×10^5 CFU/mL. Following overnight incubation at 37° C., the tubes were examined for visible bacterial growth as evidenced by turbidity. The lowest concentration of antibiotic that prevented growth represented the minimal inhibitory concentration (MIC).

FP-ST38 = assay: Kirby-Bauer disk diffusion antibiotic susceptibility testing of FP-ST38; format: cell-based, Faecalibacterium prausnitzii; conditions: FP-ST38 susceptible
Experimental: Antibiotic susceptibility was determined by standard Kirby-Bauer disk diffusion testing. FP-ST38 is susceptible to the following antibiotics (cm=zone of inhibition): amoxicillin/clavulanic acid (2.5 cm), ceftriaxone (2 cm), tetracycline (5 cm), amikacin (2 cm), and bacitracin (3.4 cm).

LC-ST100 = assay: Kirby-Bauer disk diffusion antibiotic susceptibility testing of LC-ST100; format: cell-based, Lactobacillus crispatus; conditions: LC-ST100 susceptible
Experimental: Antibiotic susceptibility was determined by standard Kirby-Bauer disk diffusion testing. LC-ST100 is susceptible to the following antibiotics (cm=zone of inhibition): azithromycin (3.5 cm), amoxicillin/clavulanic acid (5 cm), clindamycin (4 cm), vancomycin (3.8 cm), ceftriaxone (3.5 cm), tetracycline (4.2 cm), ampicillin (4 cm), bacitracin (2.5 cm).

L. crispatus ST100 = assay: Antibiotic resistance by broth solution method (MIC), L. crispatus ST100; format: cell-based, Lactobacillus crispatus
Experimental: as §5, §6

AM-ST7 = assay: Kirby-Bauer disk diffusion antibiotic susceptibility testing of AM-ST7; format: cell-based, Akkermansia muciniphila; conditions: AM-ST7 susceptible
Experimental: Antibiotic susceptibility was then determined by standard Kirby-Bauer disk diffusion testing. AM-ST7 was susceptible to the following antibiotics (cm=zone of inhibition): azithromycin (2.5 cm), amoxicillin/clavulanic acid (4 cm), vancomycin (1.5 cm), tetracycline (3 cm), bacitracin (2 cm), and levofloxacin (1.2 cm).

A. muciniphila ST7 = assay: Antibiotic resistance by broth solution method (MIC), A. muciniphila ST7; format: cell-based, Akkermansia muciniphila
Experimental: as §5, §6

Row | Compound | zone of inhibition (FP-ST38) | zone of inhibition (LC-ST100) | zone of inhibition (AM-ST7) | further results
1 | C[C@@H]1C[C@@H]([C@H](O)CC2CC(=O)NC(=O)C2)C(=O)[C@@H](C)C1 [Cycloheximide] | – | – | – | Diameter inhibition zone [mm] Pos. Control (Ca. glabrata DSM 11226): 11 mm and 10 mm and 9 mm; Diameter inhibition zone [mm] Pos. Control (Rho. glutinis DSM 70821): 14 mm and 13 mm
2 | NCC[C@H](O)C(=O)N[C@@H]1C[C@H](N)[C@@H](O[C@H]2O[C@H](CN)[C@@H](O)[C@H](O)[C@H]2O)[C@H](O)[C@H]1O[C@H]1O[C@H](CO)[C@@H](O)[C@H](N)[C@H]1O [amikacin] | 2 cm | – | – | antibiotic susceptibility (F. prausnitzii ST38): susceptible
3 | CC1(C)S[C@@H]2[C@H](NC(=O)[C@H](N)c3ccccc3)C(=O)N2[C@H]1C(=O)O [ampicillin] | – | 4 cm | – | antibiotic susceptibility (L. crispatus ST100): susceptible
4 | CC[C@H]1OC(=O)[C@H](C)[C@@H](O[C@H]2C[C@@](C)(OC)[C@@H](O)[C@H](C)O2)[C@H](C)[C@@H](O[C@@H]2O[C@H](C)C[C@H](N(C)C)[C@H]2O)[C@](C)(O)C[C@@H](C)CN(C)[C@H](C)[C@@H](O)[C@]1(C)O [azithromycin] | – | 3.5 cm | 2.5 cm | antibiotic susceptibility (F. prausnitzii ST38): susceptible; antibiotic susceptibility (L. crispatus ST100): susceptible; antibiotic susceptibility (A. muciniphila ST7): susceptible
5 | CC[C@H](C)[C@H](N)C1=N[C@H](C(=O)N[C@@H](CC(C)C)C(=O)N[C@H](CCC(=O)O)C(=O)N[C@H](C(=O)N[C@H]2CCCCNC(=O)[C@H](CC(N)=O)NC(=O)[C@@H](CC(=O)O)NC(=O)[C@H](Cc3cnc[nH]3)NC(=O)[C@@H](Cc3ccccc3)NC(=O)[C@H]([C@@H](C)CC)NC(=O)[C@@H](CCCN)NC2=O)[C@@H](C)CC)CS1 [bacitracin] ({Ileψ(thiazoline)Cys}-L[dE]IK[dOrn]I[dF]H[dD]N; lactam 4-C) | 3.4 cm | 2.5 cm | 2 cm | –
6 | CO/N=C(\C(=O)N[C@@H]1C(=O)N2C(C(=O)O)=C(CSc3nc(=O)c(=O)[nH]n3C)CS[C@H]12)c1csc(N)n1 [ceftriaxone] | 2 cm | 3.5 cm | – | –
7 | CCC[C@@H]1C[C@@H](C(=O)N[C@@H]([C@H]2O[C@H](SC)[C@H](O)[C@@H](O)[C@H]2O)[C@H](C)Cl)N(C)C1 [clindamycin] | – | 4 cm | – | –
8 | C[C@H]1COc2c(N3CCN(C)CC3)c(F)cc3c(=O)c(C(=O)O)cn1c23 [levofloxacin] | – | – | 1.2 cm | –
9 | CN(C)[C@@H]1C(O)=C(C(N)=O)C(=O)[C@@]2(O)C(O)=C3C(=O)c4c(O)cccc4[C@@](C)(O)[C@H]3C[C@@H]12 [tetracycline] | 5 cm | 4.2 cm | 3 cm | –
10 | CN[C@H](CC(C)C)C(=O)N[C@H]1C(=O)N[C@@H](CC(N)=O)C(=O)N[C@H]2C(=O)N[C@H]3C(=O)N[C@H](C(=O)N[C@H](C(=O)O)c4cc(O)cc(O)c4-c4cc3ccc4O)[C@H](O)c3ccc(c(Cl)c3)Oc3cc2cc(c3O[C@@H]2O[C@H](CO)[C@@H](O)[C@H](O)[C@H]2O[C@H]2C[C@](C)(N)[C@H](O)[C@H](C)O2)Oc2ccc(cc2Cl)[C@H]1O [vancomycin] | – | 3.8 cm | 1.5 cm | antibiotic susceptibility (F. prausnitzii ST38): susceptible; antibiotic susceptibility (L. crispatus ST100): susceptible
11 | amoxicillin/clavulanic acid | 2.5 cm | 5 cm | 4 cm | –
